Experimental data reported in US20200008421A1, “ADJUVANTS” (SYNGENTA PARTICIPATIONS AG, priority 2016, published 2020).

Experiments:
Type in all cases: in vivo
[1] = tested on: Polygonum convolvulus (POLCO), Brachiaria plantaginea (BRAPL), Commelina benghalensis (COMBE), Digitaria sanguinalis (DIGSA); assay: Glasshouse herbicide efficacy of mesotrione with adjuvants (Example 2); settings: mesotrione SC, mean over 30 and 60 g/ha, three replicates, four weed species; 21 days after application; adjuvants 0.2% v/v, Tween 20 0.5% v/v; 200 l/ha
Procedure: (§1) Mesotrione was added to the spray tank as a standard SC (suspension concentrate) formulation.
The four weed species were Polygonum convolvulus (POLCO; growth stage 13-15), Brachiaria plantaginea (BRAPL; growth stage 13-21), Commelina benghalensis (COMBE; growth stage 12-13) and Digitaria sanguinalis (DIGSA; growth stage 13-14).
Each spray test was replicated three times. […] The results shown in Table 2 below are mean averages over the two rates of mesotrione, the three replicates and the four weed species.

[2] = tested on: Polygonum convolvulus (POLCO), Brachiaria plantaginea (BRAPL), Commelina benghalensis (COMBE), Digitaria sanguinalis (DIGSA); assay: Glasshouse herbicide efficacy of mesotrione with adjuvants (Example 9); settings: mesotrione SC, mean over 30 and 60 g/ha, three replicates, four weed species; 21 days after application; adjuvants 0.2% v/v, Tween 20 0.5% v/v; 200 l/ha
Procedure: The efficacy of Adjuvant 5 as an adjuvant for the herbicide mesotrione was tested in a glasshouse against four weed species. Mesotrione was added to the spray tank as a standard SC (suspension concentrate) formulation.
(§2) The spray tests were also carried out using mesotrione in conjunction with Adjuvant 5, Adjuvant 6 or the well-known adjuvant Tween® 20. […] The four weed species were Polygonum convolvulus (POLCO), Brachiaria plantaginea (BRAPL), Commelina benghalensis (COMBE) and Digitaria sanguinalis (DIGSA).
Each spray test was replicated three times. […] The results shown in Table 9 below are mean averages over the two rates of mesotrione, the three replicates and the four weed species.

[3] = tested on: Polygonum convolvulus (POLCO), Brachiaria plantaginea (BRAPL), Commelina benghalensis (COMBE), Digitaria sanguinalis (DIGSA); assay: Glasshouse herbicide efficacy of mesotrione with adjuvants (Example 6); settings: mesotrione SC, mean over 30 and 60 g/ha, three replicates, four weed species; 21 days after application; Adjuvant 2 0.2% v/v, Tween 20 0.5% v/v; 200 l/ha
Procedure: as §1
as §2, with “2” for “5, Adjuvant 6”, “(DIGSA). Each spray test was replicated three times. […] The results shown in Table 6 below are mean averages over the two rates of mesotrione, the three replicates and the four weed species.” for “(DIGSA).”

[4] = tested on: Abutilon theophrasti (ABUTH), Chenopodium album (CHEAL), Digitaria sanguinalis (DIGSA), Setaria viridis (SETVI); assay: Glasshouse herbicide efficacy of nicosulfuron with adjuvants (Example 5); settings: nicosulfuron WG, mean over 30 and 60 g/ha, three replicates, four weed species; 21 days after application; Adjuvant 2 0.2% v/v, Atplus 411F 0.5% v/v; 200 l/ha
Procedure: (§3) Nicosulfuron was added to the spray tank as a standard WG (water dispersible granule) formulation.
The spray tests were also carried out using nicosulfuron in conjunction with Adjuvant 2 or the commercially available tank-mix adjuvant, Atplus 411F®. […] The weed species were Abutilon theophrasti (ABUTH), Chenopodium album (CHEAL), Digitaria sanguinalis (DIGSA) and Setaria viridis (SETVI).
Each spray test was replicated three times. […] The results shown in Table 5 below are mean averages over the two rates of nicosulfuron, the three replicates and the four weed species.

[5] = tested on: Abutilon theophrasti (ABUTH), Chenopodium album (CHEAL), Digitaria sanguinalis (DIGSA), Setaria viridis (SETVI); assay: Glasshouse herbicide efficacy of nicosulfuron with adjuvants (Example 1); settings: nicosulfuron WG, mean over 30 and 60 g/ha, three replicates, four weed species; 21 days after application; adjuvants 0.2% v/v, Atplus 411F 0.5% v/v; 200 l/ha
Procedure: as §3
Each spray test was replicated three times. […] The results shown in Table 1 below are mean averages over the two rates of nicosulfuron, the three replicates and the four weed species.

[6] = tested on: Alopecurus myosuroides (ALOMY), Avena fatua (AVEFA), Lolium perenne (LOLPE), Setaria viridis (SETVI); assay: Glasshouse herbicide efficacy of pinoxaden with adjuvants (Example 10); settings: pinoxaden EC, mean over 7.5 and 15 g/ha, three replicates, four weed species; 21 days after application; adjuvants 0.2% v/v; 200 l/ha
Procedure: The efficacy of Adjuvant 5 as an adjuvant for the herbicide pinoxaden was tested in a glasshouse against four weed species. Pinoxaden was added to the spray tank as a standard EC (emulsifiable concentrate) formulation.
The spray tests were also carried out using pinoxaden in conjunction with Adjuvant 5, Adjuvant 6 or the standard adjuvant tris(2-ethylhexyl) phosphate. […] The weed species were Alopecurus myosuroides (ALOMY), Avena fatua (AVEFA), Lolium perenne (LOLPE) and Setaria viridis (SETVI). Each spray test was replicated three times. […] The results shown in Table 10 below are mean averages over the two rates of pinoxaden, the three replicates and the four weed species.

[7] = tested on: Alopecurus myosuroides (ALOMY), Avena fatua (AVEFA), Lolium perenne (LOLPE), Setaria viridis (SETVI); assay: Glasshouse herbicide efficacy of pinoxaden with adjuvants (Example 7); settings: pinoxaden EC, mean over 7.5 and 15 g/ha, three replicates, four weed species; 21 days after application; adjuvants 0.2% v/v; 200 l/ha
Procedure: (§4) Pinoxaden was added to the spray tank as a standard EC (emulsifiable concentrate) formulation.
The spray tests were also carried out using pinoxaden in conjunction with Adjuvant 2 or the standard adjuvant tris(2-ethylhexyl) phosphate. […] The weed species were Alopecurus myosuroides (ALOMY), Avena fatua (AVEFA); Lolium perenne (LOLPE) and Setaria viridis (SETVI).
Each spray test was replicated three times. […] The results shown in Table 7 below are mean averages over the two rates of pinoxaden, the three replicates and the four weed species.

[8] = tested on: Alopecurus myosuroides (ALOMY), Avena fatua (AVEFA), Lolium perenne (LOLPE), Setaria viridis (SETVI); assay: Glasshouse herbicide efficacy of pinoxaden with adjuvants (Example 3); settings: pinoxaden EC, mean over 7.5 and 15 g/ha, three replicates, four weed species; 21 days after application; adjuvants 0.2% v/v; 200 l/ha
Procedure: as §4
Each spray test was replicated three times. […] The results shown in Table 3 below are mean averages over the two rates of pinoxaden, the three replicates and the four weed species.

## CS(=O)(=O)c1ccc(C(=O)C2C(=O)CCCC2=O)c([N+](=O)[O-])c1 [Mesotrione, mesotrione]
[1]
  Mean across species % phytotoxicity (mean percentage kill, leaf area killed): 25.6%
[2]
  Mean across species % phytotoxicity (mean percentage kill, leaf area killed): 27.5%
[3]
  Mean across species % phytotoxicity (mean percentage kill, leaf area killed): 17.8%

## COc1cc(OC)nc(NC(=O)NS(=O)(=O)c2ncccc2C(=O)N(C)C)n1 [Nicosulfuron, nicosulfuron]
[4]
  Mean across species % phytotoxicity (mean percentage kill, leaf area killed): 64.5%
[5]
  Mean across species % phytotoxicity (mean percentage kill, leaf area killed): 34.4%

## CCc1cc(C)cc(CC)c1-c1c(OC(=O)C(C)(C)C)n2n(c1=O)CCOCC2 [Pinoxaden, pinoxaden]
[6]
  Mean across species % phytotoxicity (mean percentage kill, leaf area killed): 7.5%
[7]
  Mean across species % phytotoxicity (mean percentage kill, leaf area killed): 3.4%
[8]
  Mean across species % phytotoxicity (mean percentage kill, leaf area killed): 3.6%
